# In patent US20020111314A1, “Novel stimulation of gene expression and protein synthesis of heat shock protein 72/73 (Hsp 70)” (The Trustees of Columbia University, priority 1995, published 2002):
# Entries after “also recorded” stand apart in the source; their conditions may differ. Peptide text beside a SMILES is read from it.
# Tests used:
# [1] = tested on: Hsp70; assay: Hsp70 induction in HepG2 cells ([3H]-leucine labeling, denaturing immunoprecipitation); assay type: cell-based, human; settings: HepG2
# Experimental: HepG2 cells were grown up to 95% confluence and then preincubated for 4 hours in a 37° C. incubator with serum-free minimum essential medium (MEM), followed by radiolabeling with 3H-leucine (150 μCi/ml) dissolved in serum-free, leucine-free medium. Preincubation and labeling medium each contained 1.5% bovine serum albumin (BSA) plus different concentrations of ALLN as indicated. After labeling, cells were collected and lysed, and Hsp70 was immunoprecipitated under denaturing conditions as described under Experimental Details. Cell lysates containing an equal amount of TCA-insoluble radioactivity were used for immunoprecipitation. (A): The immunoprecipitates were analyzed by sodium dodecyl sulfate-polyacryamide gel electrophoresis (SDS-PAGE) and fluorography. Numbers on the left-hand side denote molecular markers. (B): The Hsp70 radioactivity was quantitated by scintillation counting and plotted. All the values were presented as means±SD from three individual culture dishes.
# (§1) FIGS. 3A-3B: Effects of the other protease inhibitors on Hsp70 biosynthesis in HepG2 cells. HepG2 cells were preincubated in serum-free MEM containing either 1.5% BSA alone (Control), or BSA plus 40 μg/ml of ALLN, 40 μg/ml of ALLM, 50 μg/ml of leupeptin, 50 μg/ml of pepstatin A, 25 μg/ml of E-64d, 1 mM of phenylmethylsulfonyl fluoride (PMSF), 100 KIU/ml of apotinin, 1 mM of Benzamidine (Benz), 200 μM of calpain inhibitor peptide (CIP). Radiolabeling (in the presence of protease inhibitors), lysis and immunoprecipitation were performed as described in FIG. 1. The Hsp70 specific radioactivity (A) and the amount of total incorporated radioactivity (TCA-cpm) (B) were compared with each other. All the values were presented as the mean±SD from three individual culture dishes.
# FIGS. 9A-9B: Effects of proteasome inhibitors on Hsp70 induction. HepG2 cells were preincubated with the proteasome inhibitors MG132 at a final concentration of either 10 μM or 30 μM (A), or lactacystin at 10 μM (B) for 4 hours under conditions described in FIG. 3. These cells were then subjected to radiolabeling (30 min), cell lysis, and immunoprecipitation with anti-Hsp70 antibody. The experiments with MG132 (A) were repeated twice; the effects of lactacystin (B) were studied in triplicate culture dishes.
# ALLN, leupeptin, mouse anti-human Hsp72/73 monoclonal antibody, a secondary antibody conjugated with horseradish peroxidase (HRP) (goat anti-rabbit immunoglubin G [IgG]), and rabbit anti-rat IgG antibody were from Boehringer Mannheim Co. Anti-Human Hsp25 and anti-human Hsp60 monoclonal antibodies, ALLM, Calpain inhibitor peptide (CIP), dimethyl sulfoxide (DMSO) and dithiothreitol (DTT) were from Sigma. Human Hsp70 oligonucleotide probe was from Oncogene Science. This oligonucleotide was ^32P labeled at the 5′-end by T4 Kinase, which was from Biolabs. ^32P was from ICN Pharmaceutical Inc. L-[4,5-^3H] leucine was from Amersham Co. Anti-human Bip (immunoglobulin heavy chain binding protein, also called Grp78), anti-human Hsp27, anti-human Hsp60, and anti-human Hsp90 monoclonal antibodies were from Stress Genes. Anti-human Hsp86 and Hsp104 antibodies were from Affinity Bioreagent Inc. Nitrocellular transfer and immobilization membranes were from Schleicher & Schuell, Keene, N.H. RNA extraction kits were from Biotect, Tex. The polyclonal antibody against the human HSF1 protein was a generous gift from Dr. Carl Wu of the National Institute of Health (Rabindran, et al., 1993). Ethylene glycol bis(succunimidylsuccinate) (EGS) was from Pierce. Cbz-leucyl-leucyl-leucinal (MG132) was a gift of Dr. H. Ploegh at the Massachusetts Institute of Technology. All the other tissue culture supplies and chemicals were obtained from supplies as previously described (Dixon, et al., 1991). The HepG2 cell culture conditions were maintained as previously described (Dixon, et al., 1991).
# [2] = tested on: HepG2 cells; assay: Total incorporation of radiolabel (TCA cpm) as indicator of cell toxicity in HepG2 cells; assay type: cell-based, human; settings: MG132 10 or 30 μM, lactacystin 10 μM, data not shown
# Experimental: as §1
# Preincubation and labeling media each contained either 1.5% bovine serum albumin (BSA) alone, or BSA plus ALLN (40 μg/ml except as otherwise indicated), or BSA plus other protease inhibitors at concentrations indicated in the figure legends. At the indicated times, cells were removed from the 37° C. incubator and placed on ice, washed with cold phosphate-buffer saline (PBS) twice and lysed with lysis buffer containing 1% Triton X-100 (TX100), 1% deoxycholic acid (DOC) and 0.1% SDS in PBS containing proteinase inhibitors: 2 mM phenylmethylsulfonyl fluoride (PMSF); 2 μg/ml ALLN; 2 μg/ml leupeptin; and 2 μg/ml aprotinin. After a 30 min. incubation with lysis buffer at 4° C., the lysates were centrifuged at 14,000 g in a microcentrifuge for 5 min., and the supernatants were adjusted to 1% SDS concentration and boiled for 5 min. to denature the proteins. 1% TX100 was then added to dilute the lysates to a final concentration of 0.1% SDS. Cell lysates containing equal amounts of trichloroacetic acid (TCA)-insoluble radioactivity were used for immunoprecipitations by incubating with individual monoclonal antibody (1 μg/ml) for 2.5 hours at 4° C. Protein-A Sepharose 4B was added afterwards and the lysates incubated for another 1.5 hours at 4° C. to collect the immunocomplexes. […]
# [3] = tested on: cysteine protease, serine protease, trypsin or chymotrypsin; settings: even upon extended exposure; Ward 1995, Fenteany 1995; cited from earlier work
# [4] = tested on: cysteine proteases, calpain and cathepsin B; settings: Rock, et al., 1994; cited from earlier work
# [5] = tested on: proteasomes; settings: Rock, et al., 1994; cited from earlier work
# [6] = tested on: hsp70, i.e. hsp72, mRNA; assay: Northern blot of hsp70 (hsp72) mRNA in HepG2 cells; assay type: cell-based, human; settings: ALLN 40 μg/ml plus actinomycin D 10 μg/ml or cycloheximide 50 μg/ml, 4 hours
# Experimental: After 4 hours treatment at 37° C., cells were harvested. (B). […] The total RNA was prepared, and equal amounts of the samples were loaded and run on a 1% formaldehyde-agarose gel, blotted onto a nylon membrane, and subsequently hybridized with specific synthetic oligonucleotide probes for hsp70 mRNA as described under Experimental Details. The position of 28S and 18S rRNA are shown for reference.
# Equal amounts of tRNA samples (10 μg) were size-fractionated on a 1% agarose-formaldehyde gel according to the methods described (Maniatis, et al., 1982) and transferred to a piece of QIAGEN plus nylon membrane. To determine loading and transfer efficiency, RNA was stained with ethidium bromide before and after transfer. The membrane was baked for 30 min. at 80° C. in vacuo (a vacuum) followed by UV cross-linking. It was then incubated for 4 hours at 65° C. in a prehybridization mixture containing 10% dextran sulfate, 1% SDS, 1M sodium chloride, 50 mM Tris-HCl (pH 7.5) and 100 μg/ml denatured salmon sperm DNA. […] The membrane was then washed four times with 2×SSC, 0.1% SDS at room temperature, one time at 65° C. for 30 min., and one time at room temperature again for 5 min., and finally rinsed with 2×SSC at room temperature.
# [7] = tested on: HSF1; assay: HSF1 steady-state level and trimerization (Western blot, EGS cross-linking) in HepG2 cells; assay type: cell-based, human
# Experimental: HepG2 cells were treated with serum-free MEM containing 1.5% BSA for 2 hours at 37° C. without any additions (lane 1), at 37° C. but containing 40 μg/ml of ALLN in the medium (lane 2), at 37° C. in a medium containing both ALLN and 50 μg/ml of cycloheximide (lane 3), at 42° C. alone (lane 4), or at 42° C. plus cycloheximide in the medium (lane 5). Cell lysates were prepared as described under Experimental Details. The lysates were either directly run on the SDS-PAGE (A) to show the steady-state protein levels of HSF1 or subjected to cross-linking with ethylene glycol bis sucrinimidylsuccinate (EGS) before running the gel (B) to show the oligomeric forms of HSF1. The proteins were then transfered to a nitrocellulose membrane and immunoblotted with anti-human HSF1 antibody. Arrows on the right side indicates the monomeric, dimeric or trimeric forms of HSF1, respectively. This experiment was repeated three times with identical results.
# Total RNA was prepared using the procedure of Chomczynski and Sacchi (Chomczynski, et al., 1987) and a commercially prepared reagent, TRISOLV™ (Biotecx Laboratories Inc., TX). Equal amounts of tRNA samples (10 μg) were size-fractionated on a 1% agarose-formaldehyde gel according to the methods described (Maniatis, et al., 1982) and transferred to a piece of QIAGEN plus nylon membrane. To determine loading and transfer efficiency, RNA was stained with ethidium bromide before and after transfer. The membrane was baked for 30 min. at 80° C. in vacuo (a vacuum) followed by UV cross-linking. It was then incubated for 4 hours at 65° C. in a prehybridization mixture containing 10% dextran sulfate, 1% SDS, 1M sodium chloride, 50 mM Tris-HCl (pH 7.5) and 100 μg/ml denatured salmon sperm DNA. Hybridization was carried out for 18 hours at 65° C. in the same buffer with a ^32P-labeled (1×10^6 cpm/ml) 40-mer oligonucleotide probe to the untranslated 5′ region of a human hsp70 gene (Oncogene Science). […] The membrane was then washed four times with 2×SSC, 0.1% SDS at room temperature, one time at 65° C. for 30 min., and one time at room temperature again for 5 min., and finally rinsed with 2×SSC at room temperature. This membrane was air dried and exposed to X-ray film at −80° C. for 48 hours. For measurement of the steady-state HSF1 protein levels, whole cell extracts were prepared by lysing the cells directly with 2×SDS-sample buffer (Maniatis, et al., 1982). For chemical cross-linking experiments, whole-cell extracts were prepared as described (Mosser, et al., 1988). Briefly, the cold PBS-washed cell pellets were quickly and repeatedly frozen in liquid nitrogen. […]
structure (smiles),measurement,setting,value
CC(=O)N[C@@H](CSC(=O)[C@]1([C@@H](O)C(C)C)NC(=O)[C@H](C)[C@@H]1O)C(=O)O [lactacystin],induction of Hsp70 levels by proteasome inhibitors (FIG. 9),"[1]; 4 hours, MG132 10 μM or 30 μM, lactacystin 10 μM, 30 min labeling",induced Hsp70 levels dramatically
same,toxicity to the cells (TCA-precipitable radioactivities),[2],without obvious toxicity
same,"effect on cysteine protease, serine protease, trypsin or chymotrypsin",[3],no detectable effect
"CSCC[C@@H](C=O)NC(=O)[C@H](CC(C)C)NC(=O)[C@H](CC(C)C)NC(C)=O [ALLM, N-acetyl-leucyl-leucyl-methioninal] (Ac-Leu-Leu-Met-aldehyde)",activities against calpain and cathepsin B,[4],significant activities
same,induction of Hsp70 by protease inhibitors (FIG. 3A),"[1]; 4 h pre-treatment, ALLN 40, ALLM 40, leupeptin 50, pepstatin A 50, E-64d 25 μg/ml, PMSF 1 mM, aprotinin 100 KIU/ml",significantly induce; also recorded: less ability to induce Hsp70 levels
same,inhibition of proteasomes,[5],potent inhibitors
C[C@@H]1C[C@@H]([C@H](O)CC2CC(=O)NC(=O)C2)C(=O)[C@@H](C)C1 [cycloheximide],effect of co-treatment on ALLN-induced increase in hsp72 mRNA,[6],abolished
same,effect on heat shock-associated HSF1 trimerization,[7]; 42° C. plus cycloheximide 50 μg/ml,"did not, however, affect"
same,effect of cotreatment on ALLN-induced HSF1 trimerization,"[7]; ALLN 40 μg/ml plus cycloheximide 50 μg/ml, 37° C.",abolished the effect of ALLN on HSF1 trimerization
